Reference: paper PMC7933325, “Neolignans and Norlignans from Insect Medicine Polyphaga plancyi and Their Biological Activities” (Natural Products and Bioprospecting, 2020)

Key:
Test in all cases: kinase inhibition assay (method cited to earlier paper)
Type in all cases: biochemical
[1] = biological target: T1, JAK3 (Homo sapiens, UniProt P52333)
T1 sequence (P52333 1-1124): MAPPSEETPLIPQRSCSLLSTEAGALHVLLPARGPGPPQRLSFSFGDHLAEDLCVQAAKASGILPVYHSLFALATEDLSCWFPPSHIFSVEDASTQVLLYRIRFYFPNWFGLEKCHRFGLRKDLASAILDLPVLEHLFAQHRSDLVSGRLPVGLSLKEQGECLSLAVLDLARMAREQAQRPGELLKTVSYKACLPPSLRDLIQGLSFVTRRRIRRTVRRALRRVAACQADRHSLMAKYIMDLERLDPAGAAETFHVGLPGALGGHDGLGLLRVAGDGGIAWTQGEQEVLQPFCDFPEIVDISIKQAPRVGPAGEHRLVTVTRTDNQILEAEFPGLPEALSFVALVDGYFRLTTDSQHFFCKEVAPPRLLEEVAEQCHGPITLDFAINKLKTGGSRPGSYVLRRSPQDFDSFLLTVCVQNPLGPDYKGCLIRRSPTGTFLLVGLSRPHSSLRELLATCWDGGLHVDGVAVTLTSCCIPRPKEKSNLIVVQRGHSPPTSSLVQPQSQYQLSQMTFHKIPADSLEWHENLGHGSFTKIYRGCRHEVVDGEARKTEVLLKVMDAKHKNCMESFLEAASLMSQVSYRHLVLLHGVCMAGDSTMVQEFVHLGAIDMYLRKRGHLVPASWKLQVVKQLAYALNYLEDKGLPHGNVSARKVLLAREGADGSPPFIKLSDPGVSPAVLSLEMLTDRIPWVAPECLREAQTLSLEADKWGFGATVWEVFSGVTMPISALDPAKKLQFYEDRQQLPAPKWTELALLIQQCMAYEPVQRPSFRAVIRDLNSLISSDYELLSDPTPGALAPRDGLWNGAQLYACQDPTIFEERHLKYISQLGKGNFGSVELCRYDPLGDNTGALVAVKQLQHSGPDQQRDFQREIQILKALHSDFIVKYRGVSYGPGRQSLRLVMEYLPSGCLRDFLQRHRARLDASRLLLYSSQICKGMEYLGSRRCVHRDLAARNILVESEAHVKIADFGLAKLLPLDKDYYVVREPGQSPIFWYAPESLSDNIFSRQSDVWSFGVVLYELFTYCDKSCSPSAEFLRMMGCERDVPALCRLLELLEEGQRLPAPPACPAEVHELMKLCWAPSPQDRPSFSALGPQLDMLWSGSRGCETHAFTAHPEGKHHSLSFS

[2] = biological target: DDR1 (Homo sapiens, UniProt Q08345)
Chain of DDR1 (Q08345 19-913): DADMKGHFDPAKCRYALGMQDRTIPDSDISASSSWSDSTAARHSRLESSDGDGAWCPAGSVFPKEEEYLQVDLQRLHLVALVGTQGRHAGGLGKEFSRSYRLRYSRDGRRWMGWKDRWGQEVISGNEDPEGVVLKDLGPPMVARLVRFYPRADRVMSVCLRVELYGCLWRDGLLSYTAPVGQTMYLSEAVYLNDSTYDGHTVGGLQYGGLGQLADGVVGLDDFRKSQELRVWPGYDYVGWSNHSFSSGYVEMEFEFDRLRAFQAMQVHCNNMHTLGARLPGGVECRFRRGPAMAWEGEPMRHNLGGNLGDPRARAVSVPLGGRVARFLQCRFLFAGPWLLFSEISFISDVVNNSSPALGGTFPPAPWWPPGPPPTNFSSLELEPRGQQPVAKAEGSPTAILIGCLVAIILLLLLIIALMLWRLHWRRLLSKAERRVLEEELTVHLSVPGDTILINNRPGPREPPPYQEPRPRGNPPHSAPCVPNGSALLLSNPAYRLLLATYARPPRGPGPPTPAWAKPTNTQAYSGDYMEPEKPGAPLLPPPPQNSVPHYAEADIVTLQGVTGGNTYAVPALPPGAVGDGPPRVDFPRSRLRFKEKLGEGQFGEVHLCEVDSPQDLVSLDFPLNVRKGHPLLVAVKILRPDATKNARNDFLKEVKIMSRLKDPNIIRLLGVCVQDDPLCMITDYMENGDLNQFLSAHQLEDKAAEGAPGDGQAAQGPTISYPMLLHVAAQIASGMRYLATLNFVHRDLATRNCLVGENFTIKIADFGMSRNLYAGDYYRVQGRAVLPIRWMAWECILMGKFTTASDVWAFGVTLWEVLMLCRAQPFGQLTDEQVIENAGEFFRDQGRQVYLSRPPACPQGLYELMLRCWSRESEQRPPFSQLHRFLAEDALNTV

[3] = biological target: ROCK2 (Homo sapiens, UniProt O75116)
Chain of ROCK2 (O75116 whole entry): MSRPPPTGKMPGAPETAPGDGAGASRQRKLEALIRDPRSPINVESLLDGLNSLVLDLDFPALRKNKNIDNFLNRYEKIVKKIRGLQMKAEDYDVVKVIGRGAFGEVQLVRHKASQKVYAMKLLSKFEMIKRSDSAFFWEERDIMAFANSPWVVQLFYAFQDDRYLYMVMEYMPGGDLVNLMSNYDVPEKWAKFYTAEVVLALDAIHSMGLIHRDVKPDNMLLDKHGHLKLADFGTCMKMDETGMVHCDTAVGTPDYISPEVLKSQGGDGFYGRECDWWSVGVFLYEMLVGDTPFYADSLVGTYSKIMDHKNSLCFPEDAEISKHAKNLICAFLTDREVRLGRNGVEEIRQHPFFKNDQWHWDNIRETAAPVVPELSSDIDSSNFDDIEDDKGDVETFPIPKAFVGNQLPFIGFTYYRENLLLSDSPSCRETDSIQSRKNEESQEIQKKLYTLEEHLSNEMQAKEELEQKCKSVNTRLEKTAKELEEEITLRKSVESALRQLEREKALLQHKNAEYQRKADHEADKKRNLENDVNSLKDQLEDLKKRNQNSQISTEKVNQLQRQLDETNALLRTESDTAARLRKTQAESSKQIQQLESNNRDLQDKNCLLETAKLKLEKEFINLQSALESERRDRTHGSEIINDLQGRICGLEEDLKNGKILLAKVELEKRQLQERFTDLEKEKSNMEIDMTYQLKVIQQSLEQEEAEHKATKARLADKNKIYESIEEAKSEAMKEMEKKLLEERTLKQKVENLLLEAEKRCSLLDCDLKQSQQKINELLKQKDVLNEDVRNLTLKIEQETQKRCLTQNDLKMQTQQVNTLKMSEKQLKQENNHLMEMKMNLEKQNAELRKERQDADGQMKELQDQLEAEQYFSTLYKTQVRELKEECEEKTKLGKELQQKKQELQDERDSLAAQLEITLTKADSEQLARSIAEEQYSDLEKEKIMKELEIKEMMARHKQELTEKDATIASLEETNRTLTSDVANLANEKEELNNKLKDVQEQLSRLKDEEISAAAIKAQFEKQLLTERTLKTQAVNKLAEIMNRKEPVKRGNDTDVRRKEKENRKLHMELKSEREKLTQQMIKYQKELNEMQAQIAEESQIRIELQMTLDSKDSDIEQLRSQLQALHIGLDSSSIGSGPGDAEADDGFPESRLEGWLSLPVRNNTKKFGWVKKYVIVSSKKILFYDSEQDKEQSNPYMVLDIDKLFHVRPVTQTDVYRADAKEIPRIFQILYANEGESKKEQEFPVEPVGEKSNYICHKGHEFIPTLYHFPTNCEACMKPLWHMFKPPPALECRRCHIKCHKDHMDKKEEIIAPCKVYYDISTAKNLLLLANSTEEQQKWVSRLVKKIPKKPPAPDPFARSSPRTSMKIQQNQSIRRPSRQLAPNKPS

| IC50 [1] | IC50 [2] | IC50 [3] | SMILES |
| --- | --- | --- | --- |
| 9.35 µM | 23.9 µM | – | OC[C@H]1OC[C@H](c2ccc(O)c(O)c2)c2cc(O)c(O)cc21 (stereo in doubt) [(+)-9, (+)-Periplanol A] |
| 4.59 µM | 22.9 µM | – | OC[C@@H]1OC[C@@H](c2ccc(O)c(O)c2)c2cc(O)c(O)cc21 (stereo in doubt) [(−)-9, (−)-Periplanol A] |
| 9.17 µM | – | 27.1 µM | Cc1ccc(O)c(-c2cc(CC(=O)O)ccc2O)c1 [compound 6, Plancyin F] |
